In patent US20210045385A1, “PYRIDAZINONE-SUBSTITUTED KETOXIMES AS HERBICIDES” (FMC Corporation, priority 2018, published 2021):

Experiments:
Type in all cases: in vivo
[1] = system: pigweed (Amaranthus retroflexus); experiment: Test A postemergence, visual plant response rating; conditions: for Pigweed plant response rating (0 to 100 scale): 500 g ai/ha, postemergence, 0 is no effect, 100 is complete control; for Pigweed plant response rating: Postemergence, 125 g ai/ha, 0 to 100 scale (0 no effect, 100 complete control)
Procedure, shortened: (§1)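 Greenhouse evaluation, approx. 10 days post-spray. Soil: loam + sand. Postemergence stage: 1–2 leaves, height 2–10 cm. Vehicle: non-phytotoxic solvent blend with surfactant. Score: visual injury on a 0 (no effect) to 100 (complete control) scale.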

[2] = system: galium (catchweed bedstraw, Galium aparine); experiment: Test A postemergence, visual plant response rating; conditions: for Galium plant response rating (0 to 100 scale): 500 g ai/ha, postemergence, 0 is no effect, 100 is complete control; for Galium plant response rating: Postemergence, 125 g ai/ha, 0 to 100 scale (0 no effect, 100 complete control)
Procedure, shortened: as §1

[3] = system: foxtail, giant (giant foxtail, Setaria faberii); experiment: Test A postemergence, visual plant response rating; conditions: for Foxtail, Giant plant response rating (0 to 100 scale): 500 g ai/ha, postemergence, 0 is no effect, 100 is complete control; for Foxtail, Giant plant response rating: Postemergence, 125 g ai/ha, 0 to 100 scale (0 no effect, 100 complete control)
Procedure, shortened: as §1

corn (Zea mays) = experiment: Test A postemergence, visual plant response rating; conditions: for Corn plant response rating (0 to 100 scale): 500 g ai/ha, postemergence, 0 is no effect, 100 is complete control; for Corn plant response rating: Postemergence, 125 g ai/ha, 0 to 100 scale (0 no effect, 100 complete control)
Procedure, shortened: as §1

[4] = system: Italian ryegrass (Lolium multiflorum); experiment: Test A postemergence, visual plant response rating; conditions: for Ryegrass, Italian plant response rating (0 to 100 scale): 500 g ai/ha, postemergence, 0 is no effect, 100 is complete control; for Ryegrass, Italian plant response rating: Postemergence, 125 g ai/ha, 0 to 100 scale (0 no effect, 100 complete control)
Procedure, shortened: as §1

kochia (Kochia scoparia) [5] = experiment: Test A postemergence, visual plant response rating; conditions: for Kochia plant response rating (0 to 100 scale): 500 g ai/ha, postemergence, 0 is no effect, 100 is complete control; for Kochia plant response rating: Postemergence, 125 g ai/ha, 0 to 100 scale (0 no effect, 100 complete control)
Procedure, shortened: as §1

[6] = system: ragweed (common ragweed, Ambrosia elatior); experiment: Test A postemergence, visual plant response rating; conditions: for Ragweed plant response rating (0 to 100 scale): 500 g ai/ha, postemergence, 0 is no effect, 100 is complete control; for Ragweed plant response rating: Postemergence, 125 g ai/ha, 0 to 100 scale (0 no effect, 100 complete control)
Procedure, shortened: as §1

[7] = system: blackgrass (Alopecurus myosuroides); experiment: Test A postemergence, visual plant response rating; conditions: for Blackgrass plant response rating (0 to 100 scale): 500 g ai/ha, postemergence, 0 is no effect, 100 is complete control; for Blackgrass plant response rating: Postemergence, 125 g ai/ha, 0 to 100 scale (0 no effect, 100 complete control)
Procedure, shortened: as §1

[8] = system: wheat (Triticum aestivum); experiment: Test A postemergence, visual plant response rating; conditions: for Wheat plant response rating (0 to 100 scale): 500 g ai/ha, postemergence, 0 is no effect, 100 is complete control; for Wheat plant response rating: Postemergence, 125 g ai/ha, 0 to 100 scale (0 no effect, 100 complete control)
Procedure, shortened: as §1

[9] = system: barnyardgrass (Echinochloa crus-galli); experiment: Test A postemergence, visual plant response rating; conditions: for Barnyardgrass plant response rating (0 to 100 scale): 500 g ai/ha, postemergence, 0 is no effect, 100 is complete control; for Barnyardgrass plant response rating: Postemergence, 125 g ai/ha, 0 to 100 scale (0 no effect, 100 complete control)
Procedure, shortened: as §1

[10] = system: pigweed (Amaranthus retroflexus); experiment: Test A preemergence, visual plant response rating; conditions: for Pigweed plant response rating: 125 g ai/ha, preemergence, 0 to 100 scale, 0 no effect, 100 complete control; for Pigweed plant response rating (0 to 100 scale): 500 g ai/ha Preemergence, approx. 10 days
Procedure, shortened: as §1

[11] = system: foxtail, giant (giant foxtail, Setaria faberii); experiment: Test A preemergence, visual plant response rating; conditions: for Foxtail, Giant plant response rating: 125 g ai/ha, preemergence, 0 to 100 scale, 0 no effect, 100 complete control; for Foxtail, Giant plant response rating (0 to 100 scale): 500 g ai/ha Preemergence, approx. 10 days
Procedure, shortened: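 Preemergence: seeds in loam/sand blend given directed soil spray of compound in non-phytotoxic solvent with surfactant. Postemergence: plants 2–10 cm, one- to two-leaf stage, sprayed with same formulation. Visual injury rated vs untreated controls after ~10 days in greenhouse, 0 (no effect) to 100 (complete control).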

[12] = system: Italian ryegrass (Lolium multiflorum); experiment: Test A preemergence, visual plant response rating; conditions: for Ryegrass, Italian plant response rating: 125 g ai/ha, preemergence, 0 to 100 scale, 0 no effect, 100 complete control; for Ryegrass, Italian plant response rating (0 to 100 scale): 500 g ai/ha Preemergence, approx. 10 days
Procedure, shortened: as §1

kochia (Kochia scoparia) [13] = experiment: Test A preemergence, visual plant response rating; conditions: for Kochia plant response rating: 125 g ai/ha, preemergence, 0 to 100 scale, 0 no effect, 100 complete control; for Kochia plant response rating (0 to 100 scale): 500 g ai/ha Preemergence, approx. 10 days
Procedure, shortened: as §1

[14] = system: ragweed (common ragweed, Ambrosia elatior); experiment: Test A preemergence, visual plant response rating; conditions: for Ragweed plant response rating: 125 g ai/ha, preemergence, 0 to 100 scale, 0 no effect, 100 complete control; for Ragweed plant response rating (0 to 100 scale): 500 g ai/ha Preemergence, approx. 10 days
Procedure, shortened: as §1

[15] = system: barnyardgrass (Echinochloa crus-galli); experiment: Test A preemergence, visual plant response rating; conditions: for Barnyardgrass plant response rating: 125 g ai/ha, preemergence, 0 to 100 scale, 0 no effect, 100 complete control; for Barnyardgrass plant response rating (0 to 100 scale): 500 g ai/ha Preemergence, approx. 10 days
Procedure, shortened: as §1

rice (Oryza sativa) = experiment: Test B flooded paddy test, visual plant response rating; conditions: 250 g ai/ha, Flood, applied to paddy water, 2-leaf stage, evaluated after 13 to 15 days
Procedure, shortened: (§2)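 Seedlings at 2 leaves; compound into paddy water (3 cm flood, maintained); 13–15 d greenhouse; visual score relative to controls.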

[16] = system: ducksalad (Heteranhera limosa); experiment: as above; conditions: 250 g ai/ha, Flood, applied to paddy water, 2-leaf stage, evaluated after 13 to 15 days
Procedure, shortened: as §2

[17] = system: sedge, umbrella (small-flower umbrella sedge, Cyperus difformis); experiment: as above; conditions: 250 g ai/ha, Flood, applied to paddy water, 2-leaf stage, evaluated after 13 to 15 days
Procedure, shortened: as §2

[18] = system: barnyardgrass (Echinochloa crus-galli); experiment: as above; conditions: 250 g ai/ha, Flood, applied to paddy water, 2-leaf stage, evaluated after 13 to 15 days
Procedure, shortened: as §2

Structure (SMILES)	Pigweed plant response rating (0 to 100 scale) [1]	Pigweed plant response rating [1]	Galium plant response rating (0 to 100 scale) [2]	Galium plant response rating [2]	Foxtail, Giant plant response rating (0 to 100 scale) [3]	Foxtail, Giant plant response rating [3]	Corn plant response rating (0 to 100 scale) (corn (Zea mays))	Corn plant response rating (corn (Zea mays))	Ryegrass, Italian plant response rating (0 to 100 scale) [4]	Ryegrass, Italian plant response rating [4]	Kochia plant response rating (0 to 100 scale) (kochia (Kochia scoparia) [5])	Kochia plant response rating (kochia (Kochia scoparia) [5])	Ragweed plant response rating (0 to 100 scale) [6]	Ragweed plant response rating [6]	Blackgrass plant response rating (0 to 100 scale) [7]	Blackgrass plant response rating [7]	Wheat plant response rating (0 to 100 scale) [8]	Wheat plant response rating [8]	Barnyardgrass plant response rating (0 to 100 scale) [9]	Barnyardgrass plant response rating [9]	other results
C#CCO/N=C(/c1c(O)c(C)nn(C)c1=O)c1ccc(F)c2ccccc12 [Compound 109, 4-[(E)-(4-fluoro-1-naphthalenyl)[(2-propyn-1-yloxy)imino]methyl]-5-hydroxy-2,6-dimethyl-3(2H)-pyridazinone]	100	90	100	100	90	80	70	20	100	100	90	70	90	80	100	90	90	90	90	90	Pigweed plant response rating [10]: 100; Pigweed plant response rating (0 to 100 scale) [10]: 100; Foxtail, Giant plant response rating [11]: 100; Foxtail, Giant plant response rating (0 to 100 scale) [11]: 100; Ryegrass, Italian plant response rating [12]: 100; Ryegrass, Italian plant response rating (0 to 100 scale) [12]: 100; Kochia plant response rating (kochia (Kochia scoparia) [13]): 10; Kochia plant response rating (0 to 100 scale) (kochia (Kochia scoparia) [13]): 50; Ragweed plant response rating [14]: 90; Ragweed plant response rating (0 to 100 scale) [14]: 100; Barnyardgrass plant response rating [15]: 90; Barnyardgrass plant response rating (0 to 100 scale) [15]: 100; Plant response rating, Rice (0 to 100 scale, 0 is no effect, 100 is complete control) (rice (Oryza sativa)): 45; Plant response rating, Ducksalad (0 to 100 scale, 0 is no effect, 100 is complete control) [16]: 40; Plant response rating, Sedge, Umbrella (0 to 100 scale, 0 is no effect, 100 is complete control) [17]: 60; Plant response rating, Barnyardgrass (0 to 100 scale, 0 is no effect, 100 is complete control) [18]: 50
CON=C(c1ccccc1C1CC1)c1c(O)c(C)nn(C)c1=O [Compound 104]	90	70	100	90	80	70	30	30	100	90	80	70	90	80	90	80	80	40	80	40	Pigweed plant response rating [10]: 70; Pigweed plant response rating (0 to 100 scale) [10]: 70; Foxtail, Giant plant response rating [11]: 80; Foxtail, Giant plant response rating (0 to 100 scale) [11]: 100; Ryegrass, Italian plant response rating [12]: 90; Ryegrass, Italian plant response rating (0 to 100 scale) [12]: 100; Kochia plant response rating (kochia (Kochia scoparia) [13]): 20; Kochia plant response rating (0 to 100 scale) (kochia (Kochia scoparia) [13]): 70; Ragweed plant response rating [14]: 50; Ragweed plant response rating (0 to 100 scale) [14]: 80; Barnyardgrass plant response rating [15]: 60; Barnyardgrass plant response rating (0 to 100 scale) [15]: 80; Plant response rating, Rice (0 to 100 scale, 0 is no effect, 100 is complete control) (rice (Oryza sativa)): 0; Plant response rating, Ducksalad (0 to 100 scale, 0 is no effect, 100 is complete control) [16]: 0; Plant response rating, Sedge, Umbrella (0 to 100 scale, 0 is no effect, 100 is complete control) [17]: 0; Plant response rating, Barnyardgrass (0 to 100 scale, 0 is no effect, 100 is complete control) [18]: 0
CON=C(c1c(O)c(C)nn(C)c1=O)c1csc2ccccc12 (single isomer, unassigned) [Compound 45]	10	0	70	50	0	0	0	0	20	0	0	0	70	30	20	0	0	0	0	0	Pigweed plant response rating [10]: 0; Pigweed plant response rating (0 to 100 scale) [10]: 0; Foxtail, Giant plant response rating [11]: 0; Foxtail, Giant plant response rating (0 to 100 scale) [11]: 0; Ryegrass, Italian plant response rating [12]: 0; Ryegrass, Italian plant response rating (0 to 100 scale) [12]: 10; Kochia plant response rating (kochia (Kochia scoparia) [13]): 0; Kochia plant response rating (0 to 100 scale) (kochia (Kochia scoparia) [13]): 50; Ragweed plant response rating [14]: 10; Ragweed plant response rating (0 to 100 scale) [14]: 40; Barnyardgrass plant response rating [15]: 0; Barnyardgrass plant response rating (0 to 100 scale) [15]: 0; Plant response rating, Rice (0 to 100 scale, 0 is no effect, 100 is complete control) (rice (Oryza sativa)): 0; Plant response rating, Ducksalad (0 to 100 scale, 0 is no effect, 100 is complete control) [16]: 0; Plant response rating, Sedge, Umbrella (0 to 100 scale, 0 is no effect, 100 is complete control) [17]: 0; Plant response rating, Barnyardgrass (0 to 100 scale, 0 is no effect, 100 is complete control) [18]: 0
CCCO/N=C(\c1c(O)c(C)nn(C)c1=O)c1cccc2ccccc12 [Compound 80]	80	70	90	80	80	60	20	10	70	20	60	30	90	80	90	70	0	0	60	50	Pigweed plant response rating [10]: 20; Pigweed plant response rating (0 to 100 scale) [10]: 100; Foxtail, Giant plant response rating [11]: 60; Foxtail, Giant plant response rating (0 to 100 scale) [11]: 100; Ryegrass, Italian plant response rating [12]: 10; Ryegrass, Italian plant response rating (0 to 100 scale) [12]: 30; Kochia plant response rating (kochia (Kochia scoparia) [13]): 0; Kochia plant response rating (0 to 100 scale) (kochia (Kochia scoparia) [13]): 10; Ragweed plant response rating [14]: 50; Ragweed plant response rating (0 to 100 scale) [14]: 100; Barnyardgrass plant response rating [15]: 60; Barnyardgrass plant response rating (0 to 100 scale) [15]: 80; Plant response rating, Rice (0 to 100 scale, 0 is no effect, 100 is complete control) (rice (Oryza sativa)): 0; Plant response rating, Ducksalad (0 to 100 scale, 0 is no effect, 100 is complete control) [16]: 0; Plant response rating, Sedge, Umbrella (0 to 100 scale, 0 is no effect, 100 is complete control) [17]: 0; Plant response rating, Barnyardgrass (0 to 100 scale, 0 is no effect, 100 is complete control) [18]: 0
